Literature values, collected in patent US11141456B2, “Therapeutic compositions including frataxin, lactoferrin, and mitochondrial energy generating enzymes, and uses thereof” (Stealth BioTherapeutics Corp, priority 2014, dated 2021).

System: several mammalian cell types
Settings: energy-independent manner; cited from earlier work

2′,6′-Dmt-D-Arg-Phe-Lys-NH2
penetration of the plasma membrane: readily penetrates the plasma membrane
